Entries after “also recorded” stand apart in the source; their conditions may differ. Read-outs that look alike come from different tables or passages of the source.
Key:
[1] = molecular target: T1, DAT (Rattus norvegicus, UniProt P23977); assay: Inhibition of [3H]DA uptake by DAT into rat striatal synaptosomes; format: biochemical; conditions: for [3H]DA uptake/DAT binding: Table 3, ratio of IC50 values
T1 construct: rat striatum was the source for DAT, and cerebral cortex for SERT and NET; from tissue; P2 synaptosomal fraction for uptake
Experimental: (§1) Biology. […] Briefly, rat striatum was the source for DAT, and cerebral cortex for SERT and NET. […] Test compounds were dissolved in dimethyl sulfoxide (DMSO) and diluted out in 10% (v/v) DMSO. […] At least five triplicate concentrations of each test compound were studied, spaced evenly around the IC50 value. For DAT uptake assays, uptake of 50 nM [^3H]DA into rat striatal synaptosomes was measured exactly as described by us previously. Briefly, rat striatal P2 membrane fractions were incubated with test compounds for 8 min followed by the additional presence of [^3H]DA for 4 min at 25?. […] Construction of inhibition curves and dissolvement of test compounds were as described above.

[2] = molecular target: T1, DAT; assay: Inhibition of [3H]WIN 35,428 binding to DAT
Experimental: as §1

[3] = molecular target: T2, NET (Rattus norvegicus); assay: NET uptake inhibition, [3H]NE; format: biochemical; conditions: Table 4; rat brain
T2 construct: from tissue

[4] = molecular target: T3, SERT (Rattus norvegicus, UniProt P31652); assay: SERT uptake inhibition, [3H]5-HT; format: biochemical; conditions: for blockade of both SERT and NET (SNRI profile), in words: in vitro data
T3 construct: rat striatum was the source for DAT, and cerebral cortex for SERT and NET; from tissue; host or cells: rat cerebral cortex

[5] = molecular target: NET (Rattus norvegicus, UniProt Q9WTR4); assay: Inhibition of [3H]nisoxetine binding to NET
Experimental: as §1

[6] = system: NET; assay: Inhibition of [3H]nisoxetine binding to NET; set-up: species or system rat; conditions: Table 3; selectivity ratio of IC50 values
Experimental: as §1

[7] = molecular target: T3, SERT; assay: Inhibition of [3H]citalopram binding to SERT; conditions: for SERT binding/DAT binding: Table 3, selectivity ratio of IC50 values
Experimental: as §1

[8] = molecular target: T1, DAT; conditions: Table 2; values marked b: See reference # 22; read-out: DAT binding, IC50, [3H]Win 35,428; cited from earlier work
[9] = Table 4, rat brain, read-out: DAT uptake, IC50 [3H]DA
[10] = Table 4, rat brain, read-out: DAT binding, IC50, [3H]Win 35,428
[11] = Table 4, rat brain, read-out: SERT uptake, IC50 [3H]5-HT
[12] = Table 1, rat striatum, read-out: Inhibition of [3H]Win 35,428 binding to DAT IC50
[13] = Table 1, read-out: Inhibition of [3H]nisoxetine binding to NET, IC50
[14] = Table 2, average ± SEM, read-out: NET binding, IC50 [3H]nisoxetine
[15] = Table 1, read-out: Inhibition of [3H]citalopram binding to SERT, IC50
[16] = Table 2, average ± SEM, read-out: SERT binding, IC50 [3H]citalopram
[17] = Table 2, average ± SEM, read-out: DAT uptake, IC50 [3H]DA
[18] = Table 2, average ± SEM of three to eight experiments, read-out: DAT binding, IC50, [3H]Win 35,428

T2 sequence (Q63380 1-617): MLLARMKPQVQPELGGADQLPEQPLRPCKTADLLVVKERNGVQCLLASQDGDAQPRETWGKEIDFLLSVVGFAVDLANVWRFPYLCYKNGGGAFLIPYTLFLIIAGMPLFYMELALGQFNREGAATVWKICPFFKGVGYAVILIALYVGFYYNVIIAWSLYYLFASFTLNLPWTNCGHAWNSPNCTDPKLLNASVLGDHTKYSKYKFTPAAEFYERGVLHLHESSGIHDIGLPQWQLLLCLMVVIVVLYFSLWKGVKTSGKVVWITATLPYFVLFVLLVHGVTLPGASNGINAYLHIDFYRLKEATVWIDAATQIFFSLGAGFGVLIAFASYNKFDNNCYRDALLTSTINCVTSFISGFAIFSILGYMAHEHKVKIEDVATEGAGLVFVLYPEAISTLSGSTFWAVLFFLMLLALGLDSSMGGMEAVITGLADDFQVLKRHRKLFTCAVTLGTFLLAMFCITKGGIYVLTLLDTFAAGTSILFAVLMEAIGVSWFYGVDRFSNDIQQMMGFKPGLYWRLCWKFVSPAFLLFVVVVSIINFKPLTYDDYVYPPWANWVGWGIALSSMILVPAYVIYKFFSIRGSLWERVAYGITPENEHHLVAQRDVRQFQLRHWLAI
T3 sequence (P31652 whole entry): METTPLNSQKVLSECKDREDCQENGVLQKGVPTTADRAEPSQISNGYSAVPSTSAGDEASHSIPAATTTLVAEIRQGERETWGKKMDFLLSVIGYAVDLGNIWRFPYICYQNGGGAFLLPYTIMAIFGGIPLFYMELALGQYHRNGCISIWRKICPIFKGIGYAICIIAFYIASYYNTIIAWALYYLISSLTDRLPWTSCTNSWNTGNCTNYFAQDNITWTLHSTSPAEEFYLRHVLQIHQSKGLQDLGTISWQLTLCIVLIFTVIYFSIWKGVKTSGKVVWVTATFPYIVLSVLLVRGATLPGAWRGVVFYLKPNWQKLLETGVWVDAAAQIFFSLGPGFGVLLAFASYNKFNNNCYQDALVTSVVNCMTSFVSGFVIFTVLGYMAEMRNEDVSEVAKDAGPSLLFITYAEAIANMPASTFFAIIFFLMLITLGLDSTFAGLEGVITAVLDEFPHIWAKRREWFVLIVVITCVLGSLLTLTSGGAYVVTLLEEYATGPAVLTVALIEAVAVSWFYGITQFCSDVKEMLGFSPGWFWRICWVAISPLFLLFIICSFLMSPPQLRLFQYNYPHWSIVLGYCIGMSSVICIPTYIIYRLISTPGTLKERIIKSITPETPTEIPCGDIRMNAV
T1 sequence (P23977 whole entry): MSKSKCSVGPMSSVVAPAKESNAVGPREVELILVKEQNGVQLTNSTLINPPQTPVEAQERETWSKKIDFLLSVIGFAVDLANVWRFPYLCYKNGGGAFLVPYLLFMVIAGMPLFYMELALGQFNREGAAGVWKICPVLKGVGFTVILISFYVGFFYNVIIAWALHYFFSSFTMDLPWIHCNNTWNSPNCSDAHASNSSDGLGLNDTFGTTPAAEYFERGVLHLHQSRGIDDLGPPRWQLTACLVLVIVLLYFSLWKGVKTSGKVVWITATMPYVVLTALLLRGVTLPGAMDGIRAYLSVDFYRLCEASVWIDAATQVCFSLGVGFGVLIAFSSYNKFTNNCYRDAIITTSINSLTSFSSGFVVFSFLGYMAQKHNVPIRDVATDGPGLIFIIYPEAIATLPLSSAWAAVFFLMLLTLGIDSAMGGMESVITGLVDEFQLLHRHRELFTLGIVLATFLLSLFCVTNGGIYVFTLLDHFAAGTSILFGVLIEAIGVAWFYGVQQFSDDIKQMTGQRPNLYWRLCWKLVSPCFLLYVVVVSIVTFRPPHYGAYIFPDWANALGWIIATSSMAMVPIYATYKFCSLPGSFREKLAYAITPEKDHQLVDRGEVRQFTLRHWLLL

Structure (SMILES)	IC50 [1, 9] [nM]	IC50 [2, 10] [nM]	IC50 [3] [nM]	IC50 [4, 11] [nM]	IC50 [5, 14] [nM]	NET binding/DAT binding [6]	IC50 [7, 16] [nM]	SERT binding/DAT binding [7]	IC50 [1, 17] [nM]	other results
O[C@@H]1C[C@@H](C(c2ccccc2)c2ccccc2)OC[C@H]1NCCc1ccc(F)cc1 [(−)-29c, (2S,4R,5R)-2-benzhydryl-5-[2-(4-fluoro-phenyl)-ethylamino]-tetrahydropyran-4-ol]	427 ± 67	1050 ± 40	439 ± 14	3570 ± 140	–	–	–	–	–	–
COc1cc(CN[C@@H]2CO[C@H](C(c3ccccc3)c3ccccc3)C[C@H]2O)cc(OC)c1 [(−)-29f, (2S,4R,5R)-2-benzhydryl-5-(3,5-dimethoxy-benzylamino)-tetrahydropyran-4-ol]	135 ± 3	298 ± 29	108 ± 11	25.4 ± 2	–	–	–	–	–	blockade of both SERT and NET (SNRI profile), in words ([4]; Table 4): potent blockers for both SERT and NET; blockade of both SERT and NET (SNRI profile), in words ([4]; Table 4, listed as (−)29f): dual transport blockers
COc1ccc(CN[C@@H]2CO[C@H](C(c3ccccc3)c3ccccc3)C[C@H]2O)c(OC)c1 [(−)-29e, (2S,4R,5R)-2-benzhydryl-5-(2,4-dimethoxy-benzylamino)-tetrahydropyran-4-ol]	710 ± 130	1060	115 ± 14	24 ± 4	–	–	–	–	–	blockade of both SERT and NET (SNRI profile), in words ([4]; Table 4): dual transport blockers; also recorded: potent blockers for both SERT and NET
COc1ccc(CN[C@H]2C[C@H](C(c3ccccc3)c3ccccc3)OC[C@H]2O)cc1 [(+)-29g, (3S,4S,6R)-6-benzhydryl-4-(4-methoxy-benzylamino)-tetrahydropyran-3-ol]	2670 ± 260	3750 ± 620	1840 ± 580	3810 ± 460	–	–	–	–	–	–
Fc1ccc(CN[C@H]2CC[C@H](C(c3ccccc3)c3ccccc3)OC2)cc1 (relative stereo) [Compound 16a, trans-2-diphenylmethyl-5-(4-fluorobenzylamino)-tetrahydropyran]	–	–	–	–	12700	40.6	8410	26.9	–	activity at DAT, in words [2]: much weaker at DAT; IC50 [2, 12]: 313 ± 71 nM; IC50 [5, 13]: 12700 nM; IC50 [7, 15]: 8410 nM; IC50 [8]: 313 nM
c1ccc(C(c2ccccc2)C2CCC(NCc3cc4ccccc4[nH]3)CO2)cc1 (stereo not drawn) [Compound 16g, Cis-(6-benzhydryl-tetrahydropyran-3-yl)-(2-indole-methyl)-amine]	–	–	–	–	–	1.8	1640	7.2	135 ± 47.5	[3H]DA uptake/DAT binding [1]: 0.60; fold more active at DAT compared to the 3-substituted 16f [2]: 3.5 fold; IC50 ([2]; read-out: IC50 at the DAT): 227 nM; IC50 ([5]; read-out: IC50 for the NET): 401 nM
Ic1ccc(CN[C@H]2CC[C@@H](C(c3ccccc3)c3ccccc3)OC2)cc1 (relative stereo) [Compound 16m, Cis-(6-benzhydryl-tetrahydropyran-3-yl)-(4-iodo-benzyl)-amine]	–	–	–	–	234 ± 17	0.73	2480 ± 145	7.76	500 ± 34	[3H]DA uptake/DAT binding [1]: 1.56; IC50 [2, 18]: 319 ± 21 nM
O[C@H]1C[C@H](C(c2ccccc2)c2ccccc2)OC[C@@H]1NCCc1ccc(F)cc1 [(+)-29c, (2R,4S,5S)-2-benzhydryl-5-[2-(4-fluoro-phenyl)-ethylamino]-tetrahydropyran-4-ol]	218 ± 20	443 ± 52	77.3 ± 3	2950 ± 380	–	–	–	–	–	–
O[C@H]1C[C@H](C(c2ccccc2)c2ccccc2)OC[C@@H]1NCc1ccc(F)cc1 [(+)-29b, (2R,4S,5S)-2-benzhydryl-5-(4-fluoro-benzylamino)-tetrahydro-pyran-4-ol]	–	–	1130 ± 580	–	–	–	–	–	–	IC50 [1]: 440 ± 30 nM; IC50 [2]: 1030 ± 120 nM; IC50 [4]: 5560 ± 640 nM
O[C@@H]1CO[C@H](C(c2ccccc2)c2ccccc2)C[C@H]1NCc1ccccc1 [(−)-29h, (3S,4R,6S)-6-benzhydryl-4-benzylamino-tetrahydropyran-3-ol]	2610 ± 140	4640 ± 1030	336 ± 33	10000	–	–	–	–	–	–
Brc1ccc(CN[C@H]2CC[C@@H](C(c3ccccc3)c3ccccc3)OC2)cc1 (relative stereo) [Compound 16l, Cis-(6-benzhydryl-tetrahydropyran-3-yl)-(4-bromo-benzyl)-amine]	–	–	–	–	592 ± 12	2.93	2360 ± 92	11.69	251 ± 14	[3H]DA uptake/DAT binding [1]: 1.24; IC50 [2, 18]: 202 ± 13 nM
c1ccc(CN[C@H]2CC[C@@H](C(c3ccccc3)c3ccccc3)OC2)cc1 (relative stereo) [Compound 16k, Cis-(6-benzhydryl-tetrahydropyran-3-yl)-benzyl-amine]	–	–	–	–	274 ± 29	0.90	1580 ± 97	5.20	242 ± 39	IC50 ([1]; Table 1, read-out: Inhibition of [3H]DA uptake by DAT, IC50): 242 ± 39 nM; [3H]DA uptake/DAT binding [1]: 0.79; IC50 [2, 12]: 303 ± 14 nM; IC50 [2, 18]: 303 ± 14 nM; IC50 [5, 13]: 274 ± 29 nM; IC50 [7, 15]: 1580 ± 97 nM
COc1ccc(CN[C@@H]2C[C@@H](C(c3ccccc3)c3ccccc3)OC[C@@H]2O)cc1 [(−)-29g, (3R,4R,6S)-6-benzhydryl-4-(4-methoxy-benzylamino)-tetrahydro-pyran-3-ol]	822 ± 120	771 ± 86	765 ± 34	1070 ± 100	–	–	–	–	–	–
O=[N+]([O-])c1ccc(CN[C@H]2CC[C@@H](C(c3ccccc3)c3ccccc3)OC2)cc1 (relative stereo) [Compound 16d, Cis-(6-benzhydryl-tetrahydropyran-3-yl)-(4-nitro-benzyl)-amine]	–	–	–	–	–	–	–	–	102 ± 7	potency in inhibiting binding versus uptake, in words ([1]; DA uptake assay compared with DAT binding): three fold higher potency in inhibiting binding than uptake; [3H]DA uptake/DAT binding [1]: 2.7; activity at DAT, in words [2]: the most active for the DAT; IC50 ([2]; read-out: IC50 at the DAT): 38.3 nM; IC50 [8]: 38.3 nM
O[C@@H]1CO[C@@H](C(c2ccccc2)c2ccccc2)C[C@@H]1NCc1ccccc1 [(+)-29h, (3S,4S,6R)-6-benzhydryl-4-benzylamino-tetrahydropyran-3-ol]	962 ± 97	1250 ± 100	3220 ± 570	4420 ± 410	–	–	–	–	–	–
Fc1ccc(CN[C@H]2CC[C@@H](C(c3ccccc3)c3ccccc3)OC2)cc1F (relative stereo) [Compound 16j, Cis-(6-benzhydryl-tetrahydropyran-3-yl)-(3,4-difluoro-benzyl)-amine]	–	–	–	–	695 ± 142	1.9	3520	9.6	–	IC50 [2, 18]: 368 ± 85 nM
Clc1ccc(CN[C@H]2CC[C@@H](C(c3ccccc3)c3ccccc3)OC2)cc1Cl (relative stereo) [Compound 16i, Cis-(6-benzhydryl-tetrahydropyran-3-yl)-(3,4-dichloro-benzyl)-amine]	–	–	–	–	144 ± 25	0.36	780 ± 84	1.9	880 ± 136	IC50 [2, 18]: 400 ± 31 nM

Source: patent publication US8017791B2, “Tri-substituted 2-benzhydryl-5-benzylamino-tetrahydro-pyran-4-ol and 6-benzhydryl-4-benzylamino-tetrahydro-pyran-3-ol analogues, and novel, 3,6-disubstituted pyran derivatives” (Wayne State University, priority 2003, dated 2011)
